Molecular target: T1, OCT1 (Homo sapiens, UniProt O15245)
T1 sequence (O15245 1-554): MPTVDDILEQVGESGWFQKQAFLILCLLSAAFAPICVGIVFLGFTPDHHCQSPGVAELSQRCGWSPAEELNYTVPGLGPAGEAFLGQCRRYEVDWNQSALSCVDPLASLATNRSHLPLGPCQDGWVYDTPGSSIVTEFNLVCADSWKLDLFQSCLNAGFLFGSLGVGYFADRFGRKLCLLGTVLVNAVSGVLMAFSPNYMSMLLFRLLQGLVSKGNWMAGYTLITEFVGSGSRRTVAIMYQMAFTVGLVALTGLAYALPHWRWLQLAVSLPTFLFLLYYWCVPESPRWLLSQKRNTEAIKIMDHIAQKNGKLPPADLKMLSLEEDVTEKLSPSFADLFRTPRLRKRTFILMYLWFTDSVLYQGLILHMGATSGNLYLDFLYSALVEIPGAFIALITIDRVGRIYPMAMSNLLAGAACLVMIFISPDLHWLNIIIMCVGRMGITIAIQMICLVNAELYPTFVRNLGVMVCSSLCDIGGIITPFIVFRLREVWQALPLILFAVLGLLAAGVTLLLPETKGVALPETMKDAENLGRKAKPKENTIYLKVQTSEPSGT
Assay: Baricitinib substrate study in OCT1-transfected HEK-PEAK cells
Type: in vitro ADME

CCS(=O)(=O)N1CC(CC#N)(n2cc(-c3ncnc4[nH]ccc34)cn2)C1 [Baricitinib]
OCT1 substrate: not a substrate

Reference: publication PMC6402191 (Clinical and Translational Science, 2017)
